Experimental data taken from PubChem BioAssay (NCI).
Several values for one entry are separate records, joined by “and”; a condition that tells them apart may be missing. Equal values may be shown once.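 Tested at 5 concentrations; 48 h exposure; 96-well plates; endpoints linearly interpolated, else capped at highest concentration. GI50 marks 50% less growth. TGI: total growth inhibition.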

Experiments:
Assay in all cases: NCI-60 cell line screen, 48 h
LOX IMVI melanoma = test system: LOX IMVI melanoma
SNB-78 CNS = test system: SNB-78 CNS
SNB-19 CNS = test system: SNB-19 CNS
TK-10 renal = test system: TK-10 renal
DLD-1 colon = test system: DLD-1 colon
SK-OV-3 ovarian = test system: SK-OV-3 ovarian
M14 melanoma = test system: M14 melanoma
RPMI-8226 leukemia = test system: RPMI-8226 leukemia
DU-145 prostate = test system: DU-145 prostate
BT-549 breast = test system: BT-549 breast

For `O=C1[C@@H]2C3SC(c4ccccc43)[C@@H]2C(=O)N1c1ccccc1`, the TGI (LOX IMVI melanoma) was over 100 µM, the TGI (SNB-78 CNS) was over 100 µM and the TGI (SNB-19 CNS) was over 100 µM. The TGI (TK-10 renal) was over 100 µM, the TGI (DLD-1 colon) was over 100 µM and the TGI (SK-OV-3 ovarian) was over 100 µM. The TGI (M14 melanoma) was over 100 µM and the TGI (RPMI-8226 leukemia) was over 100 µM.
With `CC(=O)OCC1OC(n2c(=O)n(-c3ccccc3)c(=O)c3cc(Br)cc(Br)c32)C(OC(C)=O)C(OC(C)=O)C1OC(C)=O` (centres undefined) the TGI (LOX IMVI melanoma) was over 100 µM, the TGI (SNB-78 CNS) was over 100 µM and the TGI (SNB-19 CNS) was over 100 µM. It also gave a TGI (TK-10 renal) of over 100 µM, a TGI (DLD-1 colon) of over 100 µM and a TGI (SK-OV-3 ovarian) of over 100 µM. For the same compound, the TGI (M14 melanoma) was over 100 µM and the TGI (RPMI-8226 leukemia) was over 100 µM.
With `O=C(O)CCCCCO` the TGI (LOX IMVI melanoma) was over 100 µM, the TGI (SNB-78 CNS) was over 100 µM and the TGI (SNB-19 CNS) was over 100 µM. The TGI (TK-10 renal) was over 100 µM, the TGI (DLD-1 colon) was over 100 µM and the TGI (SK-OV-3 ovarian) was over 100 µM. The TGI (M14 melanoma) was over 100 µM and the TGI (RPMI-8226 leukemia) was over 100 µM.
Work on `CCC1(C(=O)OC)CCc2c(OC)ccc(OC)c2C1=O` (centres undefined) yielded a TGI (LOX IMVI melanoma) of over 100 µM, a TGI (SNB-78 CNS) of over 100 µM and a TGI (SNB-19 CNS) of over 100 µM. It also gave a TGI (TK-10 renal) of over 100 µM, a TGI (DLD-1 colon) of over 100 µM and a TGI (SK-OV-3 ovarian) of over 100 µM. For the same compound, the TGI (M14 melanoma) was over 100 µM and the TGI (RPMI-8226 leukemia) was over 100 µM.
`CC(=O)Nc1ccccc1-c1cnc2ccccc2n1` gave a TGI (LOX IMVI melanoma) of over 100 µM, a TGI (SNB-78 CNS) of over 100 µM and a TGI (SNB-19 CNS) of over 100 µM. It also gave a TGI (TK-10 renal) of over 100 µM, a TGI (DLD-1 colon) of over 100 µM and a TGI (SK-OV-3 ovarian) of over 100 µM. It also gave a TGI (M14 melanoma) of over 100 µM and a TGI (RPMI-8226 leukemia) of over 100 µM.
With `Cc1ccc(C2(O)CC(c3ccc([N+](=O)[O-])o3)=NN2C(=O)COc2ccccc2Cl)cc1` (centres undefined) the TGI (LOX IMVI melanoma) was 18.9 µM, the TGI (SNB-78 CNS) was over 100 µM and the TGI (SNB-19 CNS) was over 100 µM. For the same compound, the TGI (TK-10 renal) was over 86.1 µM, the TGI (DLD-1 colon) was over 100 µM and the TGI (SK-OV-3 ovarian) was over 100 µM. For the same compound, the TGI (M14 melanoma) was 15.4 µM and the TGI (RPMI-8226 leukemia) was over 31.9 µM.
With `CCC[CH2][Ge]([CH2]CCC)([CH2]CCC)[O]C(=O)C(OC)c1ccccc1` (centres undefined) the GI50 (LOX IMVI melanoma) was 14.3 µM, the TGI (LOX IMVI melanoma) was 35.1 µM and the GI50 (SNB-78 CNS) was over 100 µM. For the same compound, the TGI (SNB-78 CNS) was over 100 µM, the GI50 (SNB-19 CNS) was over 93.9 µM and the TGI (SNB-19 CNS) was over 100 µM. For the same compound, the GI50 (TK-10 renal) was over 91.9 µM, the TGI (TK-10 renal) was over 100 µM and the GI50 (DLD-1 colon) was 23.7 µM. It also gave a TGI (DLD-1 colon) of over 100 µM, a GI50 (SK-OV-3 ovarian) of over 94.2 µM and a TGI (SK-OV-3 ovarian) of over 100 µM. It also gave a GI50 (M14 melanoma) of 16.7 µM, a TGI (M14 melanoma) of 49.8 µM and a GI50 (RPMI-8226 leukemia) of 0.255 µM. It also gave a TGI (RPMI-8226 leukemia) of 14.6 µM.
With `C/C(=N\NC(=O)c1ccccc1O)c1cccc(/C(C)=N/NC(=O)c2ccccc2O)n1` the GI50 (DU-145 prostate) was 10.7 µM, the TGI (DU-145 prostate) was > 100 µM and 31.3 µM and the GI50 (LOX IMVI melanoma) was 0.505 µM. The TGI (LOX IMVI melanoma) was over 100 µM, the GI50 (SNB-78 CNS) was 46.2 µM and the TGI (SNB-78 CNS) was over 100 µM. For the same compound, the GI50 (BT-549 breast) was 0.441 µM, the TGI (BT-549 breast) was over 100 µM and the TGI (SNB-19 CNS) was 74.2 µM and > 100 µM. The GI50 (TK-10 renal) was 0.614 µM, the TGI (TK-10 renal) was over 80.6 µM and the GI50 (DLD-1 colon) was 2.62 µM. For the same compound, the TGI (DLD-1 colon) was over 100 µM, the GI50 (SK-OV-3 ovarian) was 1.31 µM and the TGI (SK-OV-3 ovarian) was 36.3 µM and > 100 µM. It also gave a TGI (M14 melanoma) of over 100 µM, a GI50 (RPMI-8226 leukemia) of over 100 µM and a TGI (RPMI-8226 leukemia) of over 100 µM.
With `Nc1ncnc2c(C3OC(CO)C(O)C3O)[nH]nc12` (centres undefined) the GI50 (DU-145 prostate) was 0.0125 µM, the TGI (DU-145 prostate) was 0.278 µM and the GI50 (LOX IMVI melanoma) was 0.147 µM. The TGI (LOX IMVI melanoma) was 2.22 µM and 0.4 µM, the TGI (SNB-78 CNS) was 40.4 µM and the GI50 (BT-549 breast) was 0.113 µM. The TGI (BT-549 breast) was 3.38 µM, the GI50 (SNB-19 CNS) was 0.138 µM and the TGI (SNB-19 CNS) was 3.68 µM and 24.8 µM. It also gave a GI50 (TK-10 renal) of 0.0778 µM, a TGI (TK-10 renal) of 2.48 µM and a TGI (DLD-1 colon) of 10.8 µM. For the same compound, the GI50 (SK-OV-3 ovarian) was 0.0323 µM and 0.0738 µM, the TGI (SK-OV-3 ovarian) was 0.241 µM and 0.6 µM and the GI50 (M14 melanoma) was 0.248 µM. The TGI (M14 melanoma) was 13.5 µM and the TGI (RPMI-8226 leukemia) was 3.96 µM.
